Active and inactive are the calls of the source. The calls are words filed in the database; no cut-off is given here.
Experiments:
[1] = system: CWR22R; test: Downregulation of MYC mRNA expression in human 22Rv1 cells at 10 uM incubated for 24 hrs by qRT-PCR analysis; type: functional, cell-based
[2] = system: CWR22R; test: Induction of apoptosis in human 22Rv1 cells at 1 uM incubated for 24 hrs by Annexin V-FITC/PI staining based flow cytometric analysis (reference value: 3.70 %); type: functional
[3] = system: LNCaP; test: Antiproliferative activity against human LNCaP cells assessed as inhibition of cell growth incubated for 48 hrs by CCK-8 assay; type: functional, cell-based
[4] = system: CWR22R; test: cells; type: functional, cell-based; conditions: Homo sapiens, 22Rv1, 48 h
Description: Antiproliferative activity against AR/AR-V7 positive human 22Rv1 cells assessed as inhibition of cell growth incubated for 48 hrs by CCK-8 assay

[5] = Antiproliferative activity against human L02 cells assessed as inhibition of cell growth incubated for 48 hrs by CCK-8 assay; type: toxicity, cell-based
[6] = system: CWR22R; test: Antitumor activity against human 22Rv1 cells xenografted in NSG mouse assessed as decrease in AR level in tumor at 10 mg/kg, IG administered once daily for 3 days by […] based analysis; type: functional, organism-based; conditions: time 3.0 day
[7] = system: CWR22R; test: Downregulation of ACSL3 mRNA expression in human 22Rv1 cells at 10 uM incubated for 24 hrs by qRT-PCR analysis; type: functional, cell-based
[8] = system: CWR22R; test: Downregulation of FKBP5 mRNA expression in human 22Rv1 cells at 10 uM incubated for 24 hrs by qRT-PCR analysis; type: functional, cell-based
[9] = system: Androgen receptor (Homo sapiens), P10275 [UNDEFINED MUTATION]; test: Induction of AR-V7 degradation in human 22Rv1 cells at 20 uM incubated for 24 hrs in presence of Bortezomib by Western blot analysis; type: cell-based
[10] = system: CWR22R; test: Downregulation of AR-V7 expression in human 22Rv1 cells at 5 uM incubated for 24 hrs by Western blot analysis; type: functional, cell-based
[11] = system: CWR22R; test: Induction of apoptosis in human 22Rv1 cells at 10 uM incubated for 24 hrs by Annexin V-FITC/PI staining based flow cytometric analysis (reference value: 3.70 %); type: functional
[12] = target: Androgen receptor (Homo sapiens, UniProt P10275); test: (§1) Induction of AR-V7 degradation in human 22Rv1 cells incubated for 24 hrs by Western blot analysis; type: cell-based
[13] = system: Androgen receptor (Homo sapiens), P10275 [UNDEFINED MUTATION]; test: as §1; type: cell-based; conditions: dose 1-10 µM
[14] = system: CWR22R; test: Antitumor activity against human 22Rv1 cells xenografted in NSG mouse assessed as decrease in AR-V7 level in tumor at 10 mg/kg, IG administered once daily for 3 days by […] based analysis; type: functional, organism-based; conditions: time 3.0 day
[15] = system: CWR22R; test: Induction of apoptosis in human 22Rv1 cells assessed as effect on Bcl-2 level incubated for 24 hrs by Western blot analysis; type: functional, cell-based; conditions: dose <= 10.0 µM
[16] = Stability in mouse plasma assessed as half life measured after 60 mins; type: ADME, cell-free
[17] = AUC (0 to t) in Sprague-Dawley rat at 5 mg/kg, iv by LC-MS/MS analysis; type: ADME, organism-based; conditions: in vivo
[18] = system: CWR22R; test: Downregulation of BCHE mRNA expression in human 22Rv1 cells at 10 uM incubated for 24 hrs by qRT-PCR analysis; type: functional, cell-based
[19] = target: T1, Androgen receptor (Homo sapiens) (UniProt P10275); test: Binding affinity to AR (unknown origin) assessed as thermal stabilization at 10 uM incubated for 2 hrs by CETSA analysis; type: cell-based; conditions: 22Rv1
T1 sequence (whole entry): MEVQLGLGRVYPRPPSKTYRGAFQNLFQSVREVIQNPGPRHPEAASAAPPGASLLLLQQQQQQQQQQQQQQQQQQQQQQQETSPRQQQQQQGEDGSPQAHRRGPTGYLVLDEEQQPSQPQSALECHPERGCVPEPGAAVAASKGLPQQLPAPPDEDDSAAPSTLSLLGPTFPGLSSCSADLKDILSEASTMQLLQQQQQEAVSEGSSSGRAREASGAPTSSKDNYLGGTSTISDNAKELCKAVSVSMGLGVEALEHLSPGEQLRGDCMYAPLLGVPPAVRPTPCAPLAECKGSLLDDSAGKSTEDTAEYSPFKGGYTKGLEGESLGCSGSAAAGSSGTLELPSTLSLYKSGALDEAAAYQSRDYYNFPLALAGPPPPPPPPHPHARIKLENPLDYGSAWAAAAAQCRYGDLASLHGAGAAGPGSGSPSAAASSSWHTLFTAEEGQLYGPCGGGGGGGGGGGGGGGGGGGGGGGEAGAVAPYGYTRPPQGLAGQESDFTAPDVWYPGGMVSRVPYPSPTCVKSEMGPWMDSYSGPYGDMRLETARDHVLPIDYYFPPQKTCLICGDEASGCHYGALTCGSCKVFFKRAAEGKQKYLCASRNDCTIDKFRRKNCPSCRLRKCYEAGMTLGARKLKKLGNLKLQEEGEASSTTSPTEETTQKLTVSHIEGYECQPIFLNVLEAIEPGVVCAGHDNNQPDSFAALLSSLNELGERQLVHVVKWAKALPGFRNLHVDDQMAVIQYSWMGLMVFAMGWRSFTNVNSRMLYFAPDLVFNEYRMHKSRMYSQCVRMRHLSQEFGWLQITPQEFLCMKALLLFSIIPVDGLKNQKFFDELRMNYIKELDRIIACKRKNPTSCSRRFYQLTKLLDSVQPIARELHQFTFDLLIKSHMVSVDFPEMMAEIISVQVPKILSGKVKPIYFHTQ

[20] = system: CWR22R; test: Downregulation of MMP16 mRNA expression in human 22Rv1 cells at 10 uM incubated for 24 hrs by qRT-PCR analysis; type: functional, cell-based
[21] = system: CWR22R; test: Antitumor activity against human 22Rv1 cells xenografted in NSG mouse assessed as tumor growth inhibition at 30 mg/kg, IG administered once daily for 21 days; type: functional; conditions: 22Rv1, po, 504 h, time 21 day, read-out: TGI
[22] = system: CWR22R; test: Drug localization in nucleus of human 22Rv1 cells at 5 uM incubated for 24 hrs by DAPI staining based immunofluorescence analysis; type: functional, cell-based
[23] = Toxicity in NSG mouse xenografted with human 22Rv1 cells assessed as lung damage t at 30 mg/kg, IG administered once daily for 21 days by H and E staining based analysis; type: organism-based, CWR22R; conditions: in vivo, po, 504 h, time 21 day
[24] = system: CWR22R; test: Induction of apoptosis in human 22Rv1 cells assessed as effect on PARP1 level incubated for 24 hrs by Western blot analysis; type: functional, cell-based; conditions: dose <= 10.0 µM
[25] = Toxicity in NSG mouse xenografted with human 22Rv1 cells assessed as spleen damage t at 30 mg/kg, IG administered once daily for 21 days by H and E staining based analysis; type: organism-based, CWR22R; conditions: in vivo, po, 504 h, time 21 day
[26] = MRT (0 to t) in Sprague-Dawley rat at 5 mg/kg, iv by LC-MS/MS analysis; type: ADME, organism-based; conditions: in vivo
[27] = system: CWR22R; test: Effect on MR level in human 22Rv1 at 2.5 to 20 uM incubated for 24 hrs by Western blot analysis; type: functional, cell-based; conditions: dose 2.5-20 µM
[28] = target: T1, Androgen receptor (Homo sapiens); test: Induction of AR degradation in human LNCaP cells incubated for 24 hrs by Western blot analysis; type: cell-based; conditions: dose <= 30.0 µM
[29] = system: CWR22R; test: Downregulation of KLK3 mRNA expression in human 22Rv1 cells incubated for 24 hrs by qRT-PCR analysis; type: functional, cell-based; conditions: dose 5-10 µM
[30] = Oral bioavailability in Sprague-Dawley rat at 50 mg/kg by LC-MS/MS analysis; type: ADME, organism-based; conditions: in vivo

CC1(C)C(=O)N(c2ccc(C#N)c(C(F)(F)F)c2)C(=O)N1CCNc1ccc(F)c2ncccc12
Activity [1]: Active
Activity [2]: 11.94%
IC50 [3]: 1400 nM
IC50 [4]: 900 nM
IC50 at 48 h [5]: > 100000 nM
Activity [6]: Active
Activity [7]: Active
Activity [8]: Active
Activity [9]: Active
Activity [10]: Active
Activity [11]: 30.91%
DC50 [12]: 2640 nM
Activity [13]: Dose-Dependent Effect
Activity [14]: Active
Activity [15]: Dose-Dependent Effect
half-life [16]: 4.78 h
AUC(0-t) [17]: 2870 ng·h/mL
Activity [18]: Active
Activity [19]: inactive
Activity [20]: Active
inhibition in vivo at 30 mg/kg [21]: 63%
Activity [22]: Active
Activity [23]: Non-Toxic
Activity [24]: Dose-Dependent Effect
Activity [25]: Non-Toxic
MRT last [26]: 1.3 h
Activity [27]: Active
Activity [28]: Dose-Dependent Effect
Activity [29]: Dose-Dependent Effect
bioavailability [30]: 11.9%

— ChEMBL document CHEMBL5518238, “Structure-Activity Relationship (SAR) Studies of Novel Monovalent AR/AR-V7 Dual Degraders with Potent Efficacy against Advanced Prostate Cancer” (J Med Chem, 2024)
